Patent US8329674B2, “Film forming dental compositions and related methods” (3M Innovative Properties Company, priority 2007, dated 2012)
Structures can show the parent of a compound that is named as a salt. Where two headings read alike, the source gives them in different places.

What was measured:
Format in all cases: cell-based
[1] = test system: Streptococcus mutans culture (ATCC 25175); test: Quantitative Biofilm Inhibition Test; details: for activity at 1 % w/w: Streptococcus mutans, ATCC25175, 20 h, read-out: OD Ratio
Experimental: Compounds of the dental compositions of the invention, and comparative compounds, were evaluated for biofilm inhibition activity. Composite dental restorative (available under the trade designation “FILTEK SUPREME” from 3M ESPE Dental Products, St. Paul, Minn.) was placed in a 15 millimeter by 1 millimeter stainless steel die. […] While the die containing the composite restorative was under compression, the composite was irradiated for two minutes using a Model ACE light source (available from SCHOTT North America, Inc., Auburn, N.Y.). The discs of cured composite restorative were then further cured using a Model UniXS light box (available from Heraeus Kulzer, Inc., Armonk, N.Y.) for 1.5 minutes.
The samples were incubated at 37° C. for approximately twenty hours, after which time the cured discs were removed from the broth and were gently rinsed with water. Each disc was placed in a separate test tube containing five milliliters of 1M aqueous sodium hydroxide solution, and each test tube was then sonicated for two minutes using a model SH1012-40-8 ultrasonic generator (manufactured by Branson Ultrasonics Corp., Danbury, Conn.) for two minutes to dislodge biofilm on the disc. The optical absorbance (optical density) of each aqueous sodium hydroxide solution was then measured at 550 nm using a Model ULTROSPEC III UV-visible spectrophotometer (manufactured by Pharmacia AB, Uppsala, Sweden). For each compound of the dental composition, five discs were separately incubated in broth and were evaluated separately to provide five optical density measurements. The average of the five optical density measurements was then calculated. […] The average optical density of the control or comparative samples was determined as described above. […] The ratio was considered to be proportional to the average amount of biofilm on the five cured discs, i.e., relatively low average optical density ratio was considered to be indicative of inhibition of biofilm formation. The ratio for the control was 100%.
(§1) The Quantitative Biofilm Inhibition Test was carried out using five compounds of the dental composition and eleven comparative compounds, each at a concentration of 1 weight percent. […] In addition, the Qualitative Biofilm Inhibition Test was carried out for each Example and Comparative Example, in which each disc was visually examined before it was placed in the tube containing the aqueous sodium hydroxide solution.

[2] = test system: Streptococcus mutans culture (ATCC 25175); test: Qualitative Biofilm Inhibition Test; design: key: +: refers to a visual assessment that a compound inhibited biofilm formation; −: refers to a visual assessment that either a compound did not inhibit biofilm formation, or that bacteria grew in the culture broth; details: 1 weight percent compound; visible biofilm on disc after incubation and rinse
Experimental: as §1, with “During the procedure for the Quantitative Biofilm Inhibition Test, each cured disc was visually examined after it was removed from the broth (and rinsed with water) and before it was placed in a test tube containing five milliliters of 1M aqueous sodium hydroxide solution. The presence or absence of visible biofilm on a disc was noted. The” for “The”

Streptococcus mutans = test: Bacterial Kill Rate Test
Experimental: Compounds of the dental compositions of the invention were evaluated for extent of bacterial kill in culture. Overnight cultures of Streptococcus mutans in brain heart infusion broth (10^6 CFU/mL) was mixed with a 0.1 weight percent, 0.5 weight percent, or 1.0 weight percent aqueous solution of each compound of the dental composition. After a period of 2, 5, or 10 minutes, 1.0 mL of the mixture was transferred via pipette into a first tube containing 9.0 mL of Letheen broth to provide a 10^−1 dilution. The contents of the tube were mixed using a vortex mixer. A 1.0 mL aliquot of this sample was transferred via pipette into a second tube containing 9.0 mL of Letheen broth to provide a 10^−2 dilution. A 0.1 mL aliquot of each dilution was plated and spread in duplicate on sheep blood agar in Petri dishes, using a “hockey stick” applicator, to provide 10^−2 and 10^−3 dilutions, respectively, on each plate. The plates were incubated at 37° C. for a period of 48 to 72 hours, and then the colony forming units were counted. The CFU counts were compared and the log reduction in the counts were calculated. In Table 3, the bacteria count reduction (log reduction) is the difference between the log of the initial bacteria count and the log of the bacteria count after 2, 5, and 10 minutes.

[3] = test system: Streptococcus mutans culture (ATCC 25175); test: Biofilm Inhibition Test: concentration of compound to inhibit biofilm formation at varied sucrose; details: tested at 50 or 150 millimolar
Experimental: Compounds of the dental compositions of the invention, and comparative compounds, were evaluated for biofilm inhibition activity. Composite dental restorative (available under the trade designation “FILTEK SUPREME” from 3M ESPE Dental Products, St. Paul, Minn.) was placed in a 15 millimeter by 1 millimeter stainless steel die. The open ends of the die were then covered with polyester film and the die was subjected to a pressure of 68.95 MPa using a hydraulic press. While the die containing the composite restorative was under compression, the composite was irradiated for two minutes using a Model ACE light source (available from SCHOTT North America, Inc., Auburn, N.Y.). The discs of cured composite restorative were then further cured using a Model UniXS light box (available from Heraeus Kulzer, Inc., Armonk, N.Y.) for 1.5 minutes.
The cured discs of composite restorative were then immersed in ten milliliters of Streptococcus mutans culture (ATCC 25175; 10^6 CFU/mL) prepared in brain heart infusion broth that contained 1.0 weight percent sucrose and 1 weight percent of a compound of the dental composition. The samples were incubated at 37° C. for approximately twenty hours, after which time the cured discs were removed from the broth and were gently rinsed with water. Each disc was placed in a separate test tube containing five milliliters of 1M aqueous sodium hydroxide solution, and each test tube was then sonicated for two minutes using a model SH1012-40-8 ultrasonic generator (manufactured by Branson Ultrasonics Corp., Danbury, Conn.) for two minutes to dislodge biofilm on the disc. The optical absorbance (optical density) of each aqueous sodium hydroxide solution was then measured at 550 nm using a Model ULTROSPEC III UV-visible spectrophotometer (manufactured by Pharmacia AB, Uppsala, Sweden). For each compound of the dental composition, five discs were separately incubated in broth and were evaluated separately to provide five optical density measurements. The average of the five optical density measurements was then calculated. […] The average optical density of the control or comparative samples was determined as described above. The ratio, expressed as a percentage, of the average optical density for each compound sample to the average optical density for a control sample was calculated by dividing the average optical density for each compound sample by the average optical density for a control sample and multiplying the result by one hundred. The ratio was considered to be proportional to the average amount of biofilm on the five cured discs, i.e., relatively low average optical density ratio was considered to be indicative of inhibition of biofilm formation. The ratio for the control was 100%.
During the procedure for the Quantitative Biofilm Inhibition Test, each cured disc was visually examined after it was removed from the broth (and rinsed with water) and before it was placed in a test tube containing five milliliters of 1M aqueous sodium hydroxide solution. The presence or absence of visible biofilm on a disc was noted.
The Biofilm Inhibition Test was carried out, using four compounds of the dental composition, in broth containing 1.0, 2.5, or 5.0 weight percent sucrose and the exemplary compounds of the dental composition at a concentration of either 50 millimolar or 150 millimolar. In Table 2, the millimolar concentration of compound that inhibited biofilm formation is given for each concentration of sucrose. An entry of “n/t” means that the compound was not tested in broth containing the corresponding concentration of sucrose.

[4] = 1 weight percent compound, broth with 1.0 weight percent sucrose, approx. twenty hours at 37° C., average OD at 550 nm as percentage of control (100%)

| SMILES | activity at 1 % w/w [1, 4] | Visual Assessment [2] | Bacteria Count Reduction (log reduction) (Streptococcus mutans; 0.5 wt % compound, 2 min.) | Bacteria Count Reduction (log reduction) (Streptococcus mutans; 0.5 wt % compound, 5 min.) | Bacteria Count Reduction (log reduction) (Streptococcus mutans; 0.5 wt % compound, 10 min.) | other results |
| --- | --- | --- | --- | --- | --- | --- |
| O=C(CO)[C@@H](O)[C@@H](O)[C@H](O)CO [D-Tagatose] | 145% | − |  |  |  |  |
| C[C@H](O)[C@@H](O)[C@@H](O)[C@H](O)C=O [Fucose] | 121% | − |  |  |  |  |
| N[C@H]1C(O)O[C@H](CO)[C@H](O)[C@@H]1O (stereo partly drawn) [Galactosamine HCl, D-galactosamine] | 0% | + | 0.89 log reduction | 1.08 log reduction | 1.31 log reduction | Bacteria Count Reduction (log reduction) (Streptococcus mutans; 0.1 wt % compound, 2 min.): 1.13 log reduction; Bacteria Count Reduction (log reduction) (Streptococcus mutans; 0.1 wt % compound, 5 min.): 1.00 log reduction; Bacteria Count Reduction (log reduction) (Streptococcus mutans; 0.1 wt % compound, 10 min.): 0.96 log reduction |
| O=C[C@H](O)[C@@H](O)[C@@H](O)[C@H](O)CO [Galactose] | 87% | − |  |  |  |  |
| N[C@H]1C(O)O[C@H](CO)[C@@H](O)[C@@H]1O (stereo partly drawn) [Glucosamine HCl, D-glucosamine] |  | + | 0.99 log reduction | 0.98 log reduction | 0.93 log reduction | Concentration of Compound to Inhibit Biofilm Formation ([3]; 1 wt% Sucrose): 50 mM; Concentration of Compound to Inhibit Biofilm Formation ([3]; 2.5 wt% Sucrose): 50 mM; Concentration of Compound to Inhibit Biofilm Formation ([3]; 5 wt% Sucrose): 50 mM; Bacteria Count Reduction (log reduction) (Streptococcus mutans; 0.1 wt % compound, 2 min.): 1.03 log reduction; Bacteria Count Reduction (log reduction) (Streptococcus mutans; 0.1 wt % compound, 5 min.): 0.94 log reduction; Bacteria Count Reduction (log reduction) (Streptococcus mutans; 0.1 wt % compound, 10 min.): 0.97 log reduction; Bacteria Count Reduction (log reduction) (Streptococcus mutans; 1.0 wt % compound, 2 min.): 0.93 log reduction; Bacteria Count Reduction (log reduction) (Streptococcus mutans; 1.0 wt % compound, 5 min.): 0.99 log reduction; Bacteria Count Reduction (log reduction) (Streptococcus mutans; 1.0 wt % compound, 10 min.): 0.97 log reduction; OD Ratio [1, 4]: 0% |
| OC[C@H]1O[C@@H](O[C@H]2[C@H](O)[C@@H](O)C(O)O[C@@H]2CO)[C@H](O)[C@@H](O)[C@H]1O (stereo partly drawn) [Lactose] |  | − |  |  |  | activity at 1 % w/w [1]: 82% |
| OC[C@H]1O[C@@H](O[C@@H]2[C@@H](O)[C@H](O[C@@H]3[C@@H](O)[C@H](O[C@H]4[C@H](O)[C@@H](CO)OC(O)[C@@H]4O)O[C@H](CO)[C@H]3O)O[C@H](CO)[C@H]2O)[C@H](O)[C@@H](O)[C@@H]1O (stereo partly drawn) [Laminaritetraose] |  | − |  |  |  | OD Ratio [1, 4]: 97% |
| CC(=O)N[C@H]1C(O)O[C@H](CO)[C@H](O)[C@@H]1O (stereo partly drawn) [N-Acetylgalactosamine] | 138% | − |  |  |  |  |
| CC(=O)N[C@H]1C(O)O[C@H](CO)[C@@H](O)[C@@H]1O (stereo partly drawn) [N-Acetylglucosamine, reference compound] | 83% | − | 1.12 log reduction | 1.16 log reduction | 0.99 log reduction | Bacteria Count Reduction (log reduction) (Streptococcus mutans; 0.1 wt % compound, 2 min.): 1.09 log reduction; Bacteria Count Reduction (log reduction) (Streptococcus mutans; 0.1 wt % compound, 5 min.): 1.02 log reduction; Bacteria Count Reduction (log reduction) (Streptococcus mutans; 0.1 wt % compound, 10 min.): 1.04 log reduction; Bacteria Count Reduction (log reduction) (Streptococcus mutans; 1.0 wt % compound, 2 min.): 1.05 log reduction; Bacteria Count Reduction (log reduction) (Streptococcus mutans; 1.0 wt % compound, 5 min.): 1.12 log reduction; Bacteria Count Reduction (log reduction) (Streptococcus mutans; 1.0 wt % compound, 10 min.): 1.06 log reduction |
| CC(=O)N[C@@H]1C(O)O[C@H](CO)[C@@H](O)[C@@H]1O (stereo partly drawn) [N-Acetylmannosamine, reference compound] | 51% | − | 0.93 log reduction | 1.54 log reduction | 1.61 log reduction |  |
| OC[C@@H](O)[C@H](O)[C@@H](O)CO [Xylitol] | 123% | − |  |  |  |  |
| OC[C@H]1O[C@@H](OC[C@H]2O[C@@H](O)[C@H](O)[C@@H](O)[C@@H]2O)[C@H](O)[C@@H](O)[C@@H]1O [beta-Gentiobiose] |  | − |  |  |  | OD Ratio [1, 4]: 124% |
